Measurements published in the NIST ThermoML archive (doi:10.1021/je700428f).
± gives the expanded uncertainty stated by the source.

Experiment: xn = mol fraction of the nth substance listed
Settings: 101 kPa, Liquid; for viscosity: Capillary tube (Ostwald / Ubbelohde) method

CCCCCCCCC [nonane] + COC(C)(C)C
Settings | mass density [kg/m3] | viscosity [mPa·s]
273.15 K, x2 = 0 | 733.184 ± 0.57 | 0.972 ± 0.01
273.15 K, x2 = 0.1006 | – | 0.912 ± 0.01
273.15 K, x2 = 0.1085 | 734.69 ± 0.57 | –
273.15 K, x2 = 0.1722 | 735.67 ± 0.57 | –
273.15 K, x2 = 0.2026 | – | 0.85 ± 0.01
273.15 K, x2 = 0.2995 | – | 0.796 ± 0.01
273.15 K, x2 = 0.3037 | 737.89 ± 0.56 | –
273.15 K, x2 = 0.4011 | 739.94 ± 0.55 | –
273.15 K, x2 = 0.4045 | – | 0.74 ± 0.009
273.15 K, x2 = 0.5003 | – | 0.688 ± 0.009
273.15 K, x2 = 0.5008 | 742.31 ± 0.55 | –
273.15 K, x2 = 0.6005 | 745.08 ± 0.54 | –
273.15 K, x2 = 0.6035 | – | 0.632 ± 0.009
273.15 K, x2 = 0.6992 | 748.17 ± 0.54 | –
273.15 K, x2 = 0.6998 | – | 0.586 ± 0.009
273.15 K, x2 = 0.7975 | – | 0.54 ± 0.009
273.15 K, x2 = 0.8005 | 751.89 ± 0.54 | –
273.15 K, x2 = 0.8925 | 755.81 ± 0.54 | –
273.15 K, x2 = 0.8971 | – | 0.491 ± 0.009
278.15 K, x2 = 0 | 729.335 ± 0.58 | 0.896 ± 0.01
278.15 K, x2 = 0.1006 | – | 0.842 ± 0.01
278.15 K, x2 = 0.1085 | 730.78 ± 0.57 | –
278.15 K, x2 = 0.1722 | 731.71 ± 0.57 | –
278.15 K, x2 = 0.2026 | – | 0.787 ± 0.01
278.15 K, x2 = 0.2995 | – | 0.738 ± 0.009
278.15 K, x2 = 0.3037 | 733.82 ± 0.56 | –
278.15 K, x2 = 0.4011 | 735.78 ± 0.56 | –
278.15 K, x2 = 0.4045 | – | 0.689 ± 0.009
278.15 K, x2 = 0.5003 | – | 0.641 ± 0.009
278.15 K, x2 = 0.5008 | 738.04 ± 0.55 | –
278.15 K, x2 = 0.6005 | 740.68 ± 0.55 | –
278.15 K, x2 = 0.6035 | – | 0.591 ± 0.009
278.15 K, x2 = 0.6992 | 743.64 ± 0.55 | –
278.15 K, x2 = 0.6998 | – | 0.549 ± 0.009
278.15 K, x2 = 0.7975 | – | 0.505 ± 0.009
278.15 K, x2 = 0.8005 | 747.2 ± 0.54 | –
278.15 K, x2 = 0.8925 | 750.95 ± 0.55 | –
278.15 K, x2 = 0.8971 | – | 0.46 ± 0.009
283.15 K, x2 = 0 | 725.473 ± 0.59 | 0.828 ± 0.01
283.15 K, x2 = 0.1006 | – | 0.78 ± 0.01
283.15 K, x2 = 0.1085 | 726.84 ± 0.58 | –
283.15 K, x2 = 0.1722 | 727.73 ± 0.58 | –
283.15 K, x2 = 0.2026 | – | 0.731 ± 0.009
283.15 K, x2 = 0.2995 | – | 0.687 ± 0.009
283.15 K, x2 = 0.3037 | 729.73 ± 0.57 | –
283.15 K, x2 = 0.4011 | 731.59 ± 0.56 | –
283.15 K, x2 = 0.4045 | – | 0.643 ± 0.009
283.15 K, x2 = 0.5003 | – | 0.598 ± 0.009
283.15 K, x2 = 0.5008 | 733.74 ± 0.56 | –
283.15 K, x2 = 0.6005 | 736.26 ± 0.55 | –
283.15 K, x2 = 0.6035 | – | 0.554 ± 0.009
283.15 K, x2 = 0.6992 | 739.08 ± 0.55 | –
283.15 K, x2 = 0.6998 | – | 0.514 ± 0.009
283.15 K, x2 = 0.7975 | – | 0.474 ± 0.009
283.15 K, x2 = 0.8005 | 742.47 ± 0.55 | –
283.15 K, x2 = 0.8925 | 746.06 ± 0.55 | –
283.15 K, x2 = 0.8971 | – | 0.433 ± 0.009
288.15 K, x2 = 0 | 721.603 ± 0.59 | 0.768 ± 0.009
288.15 K, x2 = 0.1006 | – | 0.726 ± 0.009
288.15 K, x2 = 0.1085 | 722.9 ± 0.59 | –
288.15 K, x2 = 0.1722 | 723.73 ± 0.58 | –
288.15 K, x2 = 0.2026 | – | 0.681 ± 0.009
288.15 K, x2 = 0.2995 | – | 0.641 ± 0.009
288.15 K, x2 = 0.3037 | 725.62 ± 0.57 | –
288.15 K, x2 = 0.4011 | 727.39 ± 0.57 | –
288.15 K, x2 = 0.4045 | – | 0.6 ± 0.009
288.15 K, x2 = 0.5003 | – | 0.56 ± 0.009
288.15 K, x2 = 0.5008 | 729.43 ± 0.56 | –
288.15 K, x2 = 0.6005 | 731.81 ± 0.56 | –
288.15 K, x2 = 0.6035 | – | 0.52 ± 0.009
288.15 K, x2 = 0.6992 | 734.49 ± 0.56 | –
288.15 K, x2 = 0.6998 | – | 0.484 ± 0.009
288.15 K, x2 = 0.7975 | – | 0.446 ± 0.009
288.15 K, x2 = 0.8005 | 737.72 ± 0.55 | –
288.15 K, x2 = 0.8925 | 741.13 ± 0.56 | –
288.15 K, x2 = 0.8971 | – | 0.407 ± 0.009
293.15 K, x2 = 0 | 717.725 ± 0.6 | 0.716 ± 0.009
293.15 K, x2 = 0.1006 | – | 0.677 ± 0.009
293.15 K, x2 = 0.1085 | 718.92 ± 0.59 | –
293.15 K, x2 = 0.1722 | 719.72 ± 0.59 | –
293.15 K, x2 = 0.2026 | – | 0.637 ± 0.009
293.15 K, x2 = 0.2995 | – | 0.601 ± 0.009
293.15 K, x2 = 0.3037 | 721.51 ± 0.58 | –
293.15 K, x2 = 0.4011 | 723.16 ± 0.57 | –
293.15 K, x2 = 0.4045 | – | 0.564 ± 0.009
293.15 K, x2 = 0.5003 | – | 0.526 ± 0.009
293.15 K, x2 = 0.5008 | 725.09 ± 0.57 | –
293.15 K, x2 = 0.6005 | 727.34 ± 0.57 | –
293.15 K, x2 = 0.6035 | – | 0.489 ± 0.009
293.15 K, x2 = 0.6992 | 729.87 ± 0.56 | –
293.15 K, x2 = 0.6998 | – | 0.455 ± 0.009
293.15 K, x2 = 0.7975 | – | 0.418 ± 0.009
293.15 K, x2 = 0.8005 | 732.94 ± 0.56 | –
293.15 K, x2 = 0.8925 | 736.17 ± 0.56 | –
293.15 K, x2 = 0.8971 | – | 0.384 ± 0.009
298.15 K, x2 = 0 | 713.834 ± 0.6 | 0.669 ± 0.009
298.15 K, x2 = 0.1006 | – | 0.634 ± 0.009
298.15 K, x2 = 0.1085 | 714.95 ± 0.6 | –
298.15 K, x2 = 0.1722 | 715.7 ± 0.59 | –
298.15 K, x2 = 0.2026 | – | 0.598 ± 0.009
298.15 K, x2 = 0.2995 | – | 0.564 ± 0.009
298.15 K, x2 = 0.3037 | 717.36 ± 0.59 | –
298.15 K, x2 = 0.4011 | 718.92 ± 0.58 | –
298.15 K, x2 = 0.4045 | – | 0.529 ± 0.009
298.15 K, x2 = 0.5003 | – | 0.496 ± 0.009
298.15 K, x2 = 0.5008 | 720.73 ± 0.58 | –
298.15 K, x2 = 0.6005 | 722.84 ± 0.57 | –
298.15 K, x2 = 0.6035 | – | 0.461 ± 0.009
298.15 K, x2 = 0.6992 | 725.22 ± 0.57 | –
298.15 K, x2 = 0.6998 | – | 0.43 ± 0.009
298.15 K, x2 = 0.7975 | – | 0.396 ± 0.009
298.15 K, x2 = 0.8005 | 728.11 ± 0.57 | –
298.15 K, x2 = 0.8925 | 731.18 ± 0.57 | –
298.15 K, x2 = 0.8971 | – | 0.363 ± 0.009
303.15 K, x2 = 0 | 709.929 ± 0.61 | 0.628 ± 0.009
303.15 K, x2 = 0.1006 | – | 0.596 ± 0.009
303.15 K, x2 = 0.1085 | 710.96 ± 0.6 | –
303.15 K, x2 = 0.1722 | 711.66 ± 0.6 | –
303.15 K, x2 = 0.2026 | – | 0.563 ± 0.009
303.15 K, x2 = 0.2995 | – | 0.532 ± 0.009
303.15 K, x2 = 0.3037 | 713.21 ± 0.59 | –
303.15 K, x2 = 0.4011 | 714.65 ± 0.59 | –
303.15 K, x2 = 0.4045 | – | 0.498 ± 0.009
303.15 K, x2 = 0.5003 | – | 0.468 ± 0.009
303.15 K, x2 = 0.5008 | 716.34 ± 0.58 | –
303.15 K, x2 = 0.6005 | 718.32 ± 0.58 | –
303.15 K, x2 = 0.6035 | – | 0.436 ± 0.009
303.15 K, x2 = 0.6992 | 720.55 ± 0.57 | –
303.15 K, x2 = 0.6998 | – | 0.408 ± 0.009
303.15 K, x2 = 0.7975 | – | 0.377 ± 0.009
303.15 K, x2 = 0.8005 | 723.25 ± 0.57 | –
303.15 K, x2 = 0.8925 | 726.13 ± 0.57 | –
308.15 K, x2 = 0 | – | 0.59 ± 0.009
308.15 K, x2 = 0.1006 | – | 0.56 ± 0.009
308.15 K, x2 = 0.2026 | – | 0.531 ± 0.009
308.15 K, x2 = 0.2995 | – | 0.502 ± 0.009
308.15 K, x2 = 0.4045 | – | 0.47 ± 0.009
308.15 K, x2 = 0.5003 | – | 0.443 ± 0.009
308.15 K, x2 = 0.6035 | – | 0.413 ± 0.009
